Consider 29 molecules from ChEMBL document CHEMBL4334467, “Synthesis and SAR Study of Carbamoyl Pyridone Bicycle Derivatives as Potent Inhibitors of Influenza Cap-dependent Endonuclease” (J Med Chem, 2019).

The source made the active and inactive calls. No cut-off for these calls is given here.

Data set [1] concerns Influenza A virus. In kind it is functional, organism-based. To be noted: A/WSN/1933(H1N1), MDCK, 72 h.
The target of data set [2] is Polymerase acidic protein (Influenza A virus (A/Puerto Rico/8/1934(H1N1)), UniProt P03433). As to the kind of experiment: Inhibition of Influenza A virus (A/WSN/1933(H1N1)) CEN using m7G[5']-ppp-[5'] [m2'-O]GAA UAU(-Cy3) GCAUCACUAGUAAGCUUUGCUCUA(-BHQ2)-3' as substrate measured after 60 mins by fluorescence assay.
Data set [3] in a line: Protein binding in rat serum assessed as unbound fraction after 24 hrs by LC-MS based equilibrium dialysis analysis. The data set is classed as ADME, cell-free. On the technique in general: In equilibrium dialysis free small molecules cross a membrane that holds back macromolecules.
A short description of data set [4]: Metabolic stability in Crj:CD(SD) rat liver microsomes assessed as compound remaining at 2 uM incubated for 30 mins by LC/MS/MS analysis. The data set is classed as ADME, Microsome. Conditions: read-out: Stability. (In general: Liver microsomes are a subcellular fraction often used to study metabolism.)
Data set [5] can be described thus: In vivo total clearance in Sprague-Dawley rat at 0.5 mg/kg, iv administered as single dose after 2 to 360 mins by LC/MS/MS analysis. The data set is classed as ADME, organism-based.
Data set [6] has as its system Influenza A virus. The data set is classed as functional, organism-based. Conditions: MDCK.
The target in data set [7] is Polymerase acidic protein (Influenza A virus (A/Puerto Rico/8/1934(H1N1)), UniProt P03433). As to the kind of experiment: Inhibition of Influenza A virus CEN.
The test system of data set [8] is Influenza A virus. As to the kind of experiment: microbe, parasite or virus in culture.
Description: Antiviral activity against Influenza A virus
Data set [9] concerns Influenza B virus. As to the kind of experiment: Antiviral activity against Influenza B virus (B/Maryland/1/59) infected in iv dosed BALB/C mouse administered once daily. The data set is classed as functional.
The nature of data set [10]: Cytotoxicity against MDCK cells after 3 days by WST-8 assay. The data set is classed as cell-based, Canis lupus familiaris. To be noted: dog. Background: Tetrazolium dyes change colour on reduction, which living cells bring about.
Data set [11] relates to Influenza A virus. The data set is classed as functional, organism-based. To be noted: A/Puerto Rico/8/1934(H1N1), MDCK, 72 h.
Data set [12] deals with Influenza A virus H3N2. The data set is classed as functional, organism-based. To be noted: A/Hong Kong/8/68, MDCK, 72 h.
For data set [13], the system named is Influenza A virus H3N2. In kind it is functional, organism-based. Conditions: A/Victoria/3/1975(H3N2), MDCK, 72 h.
Data set [14] has as its system Influenza B virus. As to the kind of experiment: Antiviral activity against Influenza B virus (B/Maryland/1/59) infected in BALB/C mouse assessed as increase in mouse survival at 0.08 to 2 mg/kg, iv administered once daily. The data set is classed as functional, organism-based.
Data set [15] relates to Influenza B virus. As to the kind of experiment: Antiviral activity against Influenza B virus (B/Maryland/1/59) infected in MDCK cells assessed as reduction in virus-induced cytopathic effect incubated for 72 hrs by WST assay. In kind it is functional, organism-based.
Data set [16] deals with Influenza B virus. As to the kind of experiment: Antiviral activity against Influenza B virus (B/Hong Kong/05/72) infected in MDCK cells assessed as reduction in virus-induced cytopathic effect incubated for 72 hrs by WST assay. The data set is classed as functional, organism-based. Conditions: B/Hong Kong/05/1972, MDCK.
Data set [17] deals with Influenza B virus. As to the kind of experiment: Antiviral activity against Influenza B virus (B/Maryland/1/59) infected in BALB/C mouse assessed as mouse survival at 10 mg/kg, iv administered once daily relative to control. The data set is classed as functional.

On to `O=C(O)/C(O)=C/C(=O)C1(Cc2ccc(Cl)cc2)CCN(Cc2ccccc2)CC1`, for which the response in data set [1] was half-maximal at 38300 nM (EC50).
As for `COCCN1CN(Cc2ccc(F)cc2)n2cc(C(=O)O)c(=O)c(O)c2C1=O`, the IC50 (usually the midpoint of a concentration-inhibition curve) in data set [2] is 419 nM. For the same molecule, in data set [1], the EC50 (usually the midpoint of the concentration-response curve) is above 25000 nM.
The corresponding values for `COCCN1C[C@H](c2ccccc2)n2cc(C(=O)O)c(=O)c(O)c2C1=O` are 27800 nM and above 50000 nM.
Taken in the same sequence, the figures for `COCCN1CN(C(c2ccccc2)c2ccccc2)n2cc(C(=O)O)c(=O)c(O)c2C1=O` were 116 nM and 1470 nM.
In the case of `CN1C[C@H](C(c2ccccc2)c2ccccc2)n2ccc(=O)c(O)c2C1=O`, the fraction unbound (commonly the share of the substance not bound to proteins or other matrix) at 24 h in data set [3] was found to be 0.285. Moreover, the remaining at 0.5 h, 2 µM in [4] was 79.9%. In addition, the clearance (commonly the volume of plasma or blood freed of the substance per unit of time) in data set [5] came out at 31.6 mL/min/kg. This molecule had an IC50 in [2] of 80.4 nM. Further, the midpoint of the response in data set [1], the EC50, lay at 144 nM.
In data set [2], `COCCN1C[C@H](CC(C)C)n2cc(C(=O)O)c(=O)c(O)c2C1=O` gave an IC50 of 9310 nM.
Same read-out and setting: the value for `COCCN1CCn2cc(C(=O)O)c(=O)c(O)c2C1=O` was 68600 nM.
As to `O=C1c2c(O)c(=O)ccn2N(C(c2ccccc2)c2ccccc2)CN1Cc1ccco1`, the fraction unbound at 24 h in data set [3] stood at 0.0217. In addition, the remaining at 0.5 h, 2 µM in data set [4] stood at 50.6%. In addition, the clearance in data set [5] turned out to be 42.6 mL/min/kg. This molecule came in with an IC50 in data set [2] of 588 nM. Further, in data set [1], the EC50 turned out to be 478 nM.
In data set [2], `COCCN1C[C@H](C(C)C)n2cc(C(=O)O)c(=O)c(O)c2C1=O` came in with an IC50 of 2990 nM.
On to `O=C1N/C(=N\N=C2\C(=O)Nc3ccccc32)S/C1=C1\C(=O)Nc2ccccc21`, for which the EC50 in data set [6] was 800 nM.
In the case of `COCCN1CN(C(c2ccccc2)c2ccccc2)n2ccc(=O)c(O)c2C1=O`, the free fraction (fraction unbound) at 24 h in data set [3] worked out at 0.129. Further, the remaining at 0.5 h, 2 µM in [4] was 83.4%. Also, the clearance in data set [5] was found to be 47.4 mL/min/kg. Moreover, the IC50 in data set [2] is 103 nM. This molecule also came in with an EC50 in data set [1] of 75.2 nM.
With `COCCN1C[C@H](CCc2ccccc2)n2cc(C(=O)O)c(=O)c(O)c2C1=O`, the IC50 in data set [2] is 1350 nM.
Consider `CCOC(=O)c1cn2c(c(O)c1=O)C(=O)N(CCOC)C[C@@H]2C(c1ccccc1)c1ccccc1`, for which the IC50 in [2] stood at 298 nM. This molecule gave an EC50 in data set [1] of 2530 nM.
In data set [7], `O=C(O)c1cn(CC2(n3ccc4cccnc43)CCCC2)cc(O)c1=O` displayed an IC50 of 5 nM. In data set [8], this molecule yielded an EC50 of 201 nM.
As for `COCCN1C[C@H](C(c2ccccc2)c2ccccc2)n2cc(Cl)c(=O)c(O)c2C1=O`, the EC50 in data set [1] worked out at 541 nM.
Turning to `CN1CN(C(c2ccccc2)c2ccccc2)n2ccc(=O)c(O)c2C1=O`, the fraction unbound at 24 h in data set [3] was 0.07. Also, in data set [4], the remaining at 0.5 h, 2 µM amounted to 92.1%. The clearance in [5] was 18.8 mL/min/kg. This molecule also gave an IC50 in data set [2] of 164 nM. This molecule yielded an EC50 in [1] of 81.6 nM.
Consider `COCCN1C[C@H](C(c2ccccc2)c2ccccc2)n2cc(N)c(=O)c(O)c2C1=O`, for which the IC50 in data set [2] came out at 358 nM. This molecule came in with an EC50 in data set [1] of 3860 nM.
The corresponding values for `COCCN1C[C@H](Cc2ccccc2)n2cc(C(=O)O)c(=O)c(O)c2C1=O` are 241 nM and above 50000 nM.
In data set [7], `O=c1oc2ccc(-c3ccc(F)cc3)cc2cc1O` came in with an IC50 of 500 nM.
`COCCN1C[C@H](C(c2ccccc2)c2ccccc2)n2cc(C(=O)O)c(=O)c(O)c2C1=O` had an IC50 in data set [2] of 47.8 nM. In data set [1], this molecule displayed an EC50 of 293 nM.
On to `CC(C)N1CN(C(c2ccccc2)c2ccccc2)n2ccc(=O)c(O)c2C1=O`, for which the fraction unbound at 24 h in data set [3] was 0.0377. The remaining at 0.5 h, 2 µM in [4] is 86%. In addition, the Activity result in data set [9] is “Dose-dependent effect”. Moreover, the median effective dose (ED50) – broadly, the midpoint of the dose-response relation – in data set [9] was 0.89 mg/kg/day. The molecule also gave a clearance in data set [5] of 10.9 mL/min/kg. The CC50 – broadly, the concentration that lowers cell viability or growth by half – at 72 h in data set [10] is above 25000 nM. The EC50 in data set [11] came to 183 nM; in data set [12] it was 302 nM; in [13], 829 nM; in data set [15], 176 nM; in data set [1], 81.6 nM; in data set [16] it was 124 nM. The IC50 in data set [2] stood at 286 nM. Also, in data set [14], the result was inactive. Moreover, in [17], the survival at 10 mg/kg worked out at 100%.
As to `CC(C)N1C[C@H](C(c2ccccc2)c2ccccc2)n2ccc(=O)c(O)c2C1=O`, the fraction unbound at 24 h in data set [3] was 0.182. Also, the remaining at 0.5 h, 2 µM in data set [4] came to 78.7%. In [5], this molecule had a clearance of 25.3 mL/min/kg. The EC50 in data set [11] came to 194 nM; in data set [12], 232 nM; in [13] it was 488 nM; in data set [15], 177 nM; in [1], 57.5 nM; in data set [16] it was 100 nM. This molecule yielded an IC50 in data set [2] of 239 nM.
Take `COCCN1C[C@H](C(c2ccccc2)c2ccccc2)n2ccc(=O)c(O)c2C1=O`: the fraction unbound at 24 h in data set [3] is 0.297. In addition, the remaining at 0.5 h, 2 µM in data set [4] was found to be 79.7%. This molecule returned a clearance in [5] of 42.2 mL/min/kg. For the same molecule, half-maximal inhibition in [2] (IC50) required 115 nM. The molecule further yielded an EC50 in [1] of 134 nM.
Regarding `O=C(NCCc1ccc(O)c(O)c1)c1cc2cc(O)c(O)cc2[nH]1`, in data set [7], it took 940 nM to reach half-maximal inhibition (IC50). The molecule further showed an EC50 in data set [8] of 16000 nM.
In turn, `O=c1[nH]c(-c2ccc(F)cc2)c(-c2ccc(-c3nnn[nH]3)cc2)cc1O` returned an EC50 in data set [8] of 11400 nM.
`COCCN1C[C@H](C(c2ccccc2)c2ccccc2)n2cc(OC)c(=O)c(O)c2C1=O` displayed an IC50 in data set [2] of 110 nM. For the same molecule, in data set [1], the EC50 is 1680 nM.
As for `COCCN1C[C@H](C(c2ccccc2)c2ccccc2)n2cc(C)c(=O)c(O)c2C1=O`, the IC50 in [2] is 281 nM. The molecule further came in with an EC50 in [1] of 2470 nM.
Taken in the same sequence, the figures for `CNC(=O)c1cn2c(c(O)c1=O)C(=O)N(CCOC)C[C@@H]2C(c1ccccc1)c1ccccc1` were 1590 nM and 7110 nM.
With `COCCN1C[C@@H](Cc2ccccc2)n2cc(C(=O)O)c(=O)c(O)c2C1=O`, the IC50 in data set [2] was found to be 27400 nM. Also, in data set [1], the EC50 is above 50000 nM.
